What was measured:
[1] = Salt spray test DIN 50 021 SS, 168 hours, of acrylic dispersion coating (Maincote HG-54) with corrosion inhibitor; corrosion protection factor CPF; details: salt spray 168 hours, coat thickness 50 to 55 μm; for CPF film / CPF metal: maximum 6 points, greater = better; for CPF: sum of film and metal, maximum 12 points
Procedure: (§1) In order to prepare the coating formulation (acrylic dispersion based on Maincote HG-54), components 1 to 8 (formulation without amine salt) and components 1 to 9 (formulation comprising an amine salt) are employed in the sequence stated (see Table 1).
(§2) Components 1 to 8 or 1 to 9 are dispersed using a high-speed stirrer at 3000 revolutions/minute to a degree of ground fineness or ground particulate nature of <15 μm. The outcome of dispersing the pigment paste thus obtained is assessed by determining the grindometer value (ISO 1524).The amount of the novel salts employed is based on the overall solids content of the formulation without salt (overall solids content 47%). Accordingly, an addition of, say, 1.0% of amine salt to 100 g of dispersion denotes, for example, an amount of 0.47 g. To complete the coating formulation, components 10 to 16 of Table 1 are added at a reduced stirring speed (1000 revolutions/minute) in the stated sequence. Subsequently, the pH of the formulation is checked and, if appropriate, is adjusted prior to application to a value of from 8 to 8.5 using ammonia solution (25% strength).
(§3) The coating formulations are applied to steel panels (19×10.5 cm) of the Bonder type (cold-rolled degreased steel; manufactured by Chemetall, Frankfurt am Main/Germany) in a coat thickness which after drying amounts to 50-55 μm. Drying conditions: 10 days at room temperature.
(§4) Prior to the beginning of weathering, the “coating films” undergo defined damage in the form of a parallel cut (i.e. parallel to the longest panel edge) using a Bonder cross-cut instrument (Mod. 205; manufactured and sold by Lau, 5870 Hemer/Germany). The panel edges are protected by applying an edge protector (Icosit® 255; manufactured by Inertol AG, Winterthur/Switzerland).
(§5) The samples are subsequently subjected to accelerated weathering in a salt spray test in accordance with DIN 50 021 SS for 168 hours (Table 2) or to a humidity test in accordance with ASTM D 4585-87 for 330 hours (Table 3). The assessment of the results is based on the relevant DIN standards in accordance with an evaluation key, by the indication of a corrosion protection value CPF (Corrosion Protection Factor). The CPF is an additive term composed of an assessment of the coating (film) and an assessment of visible underfilm corrosion and appearance of the metal surface, and has a maximum of 12 points. The individual maximum values are 6 points each. The greater the CPF, the better the protection against corrosion.

[2] = Subfilm migration in the wet state (cathodic delamination) along the artificial damage, DIN 53 167, after the salt spray test; details: after salt spray 168 hours, coat thickness 50 to 55 μm, lesser = more effective
Text: as §3, §4
(§6) As additional assessment criteria, the “subfilm migration in the wet state” (cathodic delamination) along the artificial damage side is determined, after the end of the salt spray test, in accordance with DIN 53 167. […] After the end of the humidity test, the wet adhesion of the coating formulation is determined in accordance with DIN 53 151 by making a crosshatch cut followed by the tape tearoff test. According to DIN 53 151 (scale from Gt 0 to Gt 5) a crosshatch value of Gt 0 corresponds to completely intact adhesion of the coating film, whereas Gt 5 corresponds to inadequate adhesion.

[3] = Humidity test ASTM D 4585-87, 330 hours, of acrylic dispersion coating (Maincote HG-54) with corrosion inhibitor; corrosion protection factor CPF; details: humidity test 330 hours, coat thickness 45 to 50 μm; for CPF film / CPF metal: maximum 6 points, greater = better; for CPF: sum of film and metal, maximum 12 points
Procedure: as §1, §2
[…] Drying conditions: 10 days at room temperature.
as §4, §5

[4] = Wet adhesion of the coating formulation, DIN 53 151 crosshatch cut and tape tearoff test, after the humidity test; details: after humidity test 330 hours, scale Gt 0 (completely intact adhesion) to Gt 5 (inadequate adhesion)
Procedure: as §3, §6

[5] = 1% inhibitor on overall solids content
[6] = 2% inhibitor on overall solids content

SMILES | CPF film [1, 5] | CPF metal [1, 5] | CPF ([1]; 1% inhibitor) | CPF film [1, 6] | CPF metal [1, 6] | CPF ([1]; 2% inhibitor) | Cathodic delamination (mm total) ([2]; 1% inhibitor) | Cathodic delamination (mm total) ([2]; 2% inhibitor) | CPF film [3, 5] | CPF metal [3, 5] | CPF ([3]; 1% inhibitor) | CPF film [3, 6] | CPF metal [3, 6] | CPF ([3]; 2% inhibitor) | Wet adhesion (Gt value) ([4]; 1% inhibitor) | Wet adhesion (Gt value) ([4]; 2% inhibitor)
CCCCCCCCCCCCCCCCCCN(CP(=O)(O)O)CP(=O)(O)O.CCN1CCOCC1.CCN1CCOCC1 [Example 1, n-Octadecylaminobismethylenephosphonic Acid, Salt with Two Equivalents of N-ethylmorpholine] | 6.0 | 5.0 | 11.0 | 6.0 | 5.2 | 11.2 | 28 mm | 30 mm | 4.0 | 4.0 | 8.0 | 5.0 | 4.0 | 9.0 | 0 Gt | 0 Gt
CCCCCCN(CCCCCC)CP(=O)(O)O.CCN1CCOCC1.CCN1CCOCC1 [Example 2, Dihexylaminomethylenephosphonic Acid, Salt with Two Equivalents of N-ethylmorpholine] | 4.2 | 5.2 | 9.4 | – | – | – | 14 mm | – | 4.0 | 4.0 | 8.0 | – | – | – | 0 Gt | –
CCCCCCCCN(CCCCCCCC)CP(=O)(O)O.CCN1CCOCC1.CCN1CCOCC1 [Example 3, Dioctylaminomethylenephosphonic Acid, Salt with Two Equivalents of N-ethylmorpholine] | 4.0 | 4.0 | 8.0 | – | – | – | 16 mm | – | – | – | – | – | – | – | – | –
CCCCC(CC)CN(CP(=O)(O)O)CP(=O)(O)O.CCN1CCOCC1.CCN1CCOCC1 (stereo not drawn) [Example 4, 2-Ethylhexylaminobismethylenephosphonic Acid, Salt with Two Equivalents N-ethylmorpholine] | 5.0 | 5.0 | 10.0 | – | – | – | 22 mm | – | 4.0 | 2.6 | 6.6 | 5.0 | 4.8 | 9.8 | 0 Gt | 0 Gt
CCCCCCCCCCCCCCCCN(CP(=O)(O)O)CP(=O)(O)O.CCN1CCOCC1.CCN1CCOCC1 [Example 5, n-Hexadecylaminobismethylenephosphonic Acid, Salt with Two Equivalents of N-ethylmorpholine] | 5.2 | 5.0 | 10.2 | – | – | – | 26 mm | – | 4.2 | 5.0 | 9.2 | – | – | – | 0 Gt | –
CCCCCCCCCCCCCCN(CP(=O)(O)O)CP(=O)(O)O.CCN1CCOCC1.CCN1CCOCC1 [Example 6, n-Tetradecylaminobismethylenephosphonic Acid, Salt with Two Equivalents of N-ethylmorpholine] | 5.4 | 5.0 | 10.2 | – | – | – | 18 mm | – | 4.6 | 5.0 | 9.6 | 5.2 | 4.5 | 9.7 | 0 Gt | 0 Gt
CCCCCCCCCCCCN(CP(=O)(O)O)CP(=O)(O)O.CCN1CCOCC1.CCN1CCOCC1 [Example 7, n-Dodecylaminobismethylenephosphonic Acid, Salt with Two Equivalents of N-ethylmorpholine] | 5.4 | 5.6 | 11.0 | – | – | – | 16 mm | – | 5.2 | 3.0 | 8.2 | 6.0 | 4.5 | 10.5 | 0 Gt | 0 Gt
CCCCCCCCCCN(CP(=O)(O)O)CP(=O)(O)O.CCN1CCOCC1.CCN1CCOCC1 [Example 8, n-Decylaminobismethylenephosphonic Acid, Salt with Two Equivalents of N-ethylmorpholine] | 5.2 | 5.4 | 10.6 | 5.2 | 5.2 | 10.4 | 12 mm | 10 mm | 5.2 | 4.7 | 9.9 | – | – | – | 0-1 Gt | –
CCCCCCCCN(CP(=O)(O)O)CP(=O)(O)O.CCN1CCOCC1.CCN1CCOCC1 [Example 9, n-Octylaminobismethylenephosphonic Acid, Salt with Two Equivalents of N-ethylmorpholine] | 5.6 | 5.4 | 11.0 | – | – | – | 12 mm | – | 4.4 | 4.0 | 8.4 | 4.8 | 5.4 | 10.2 | 0 Gt | 0 Gt
CCCCCCN(CP(=O)(O)O)CP(=O)(O)O.CCN1CCOCC1.CCN1CCOCC1 [Example 10, n-Hexylaminobismethylenephosphonic Acid, Salt with Two Equivalents of N-ethylmorpholine] | 4.6 | 5.4 | 10.0 | – | – | – | 24 mm | – | 4.0 | 3.8 | 7.8 | 4.4 | 6.0 | 10.4 | 0 Gt | 0 Gt
CCCCCCCCCCCCN(CP(=O)(O)O)CP(=O)(O)O.OCCN(CCO)CCO.OCCN(CCO)CCO [Example 16, n-Dodecylaminobismethylenephosphonic Acid, Salt with Two Equivalents of Triethanolamine] | 4.8 | 4.4 | 9.2 | – | – | – | 16 mm | – | – | – | – | 4.8 | 3.6 | 8.4 | – | 0 Gt
CCCCCCCCCCN(CP(=O)(O)O)CP(=O)(O)O.OCCN(CCO)CCO.OCCN(CCO)CCO [Example 17, n-Decylaminobismethylenephosphonic Acid, Salt with Two Equivalents of Triethanolamine] | 5.4 | 5.5 | 10.9 | – | – | – | 16 mm | – | – | – | – | – | – | – | – | –

— patent US6403826B1, “Corrosion-inhibiting coating composition for metals” (Ciba Specialty Chemicals Corporation, priority 1996, dated 2002)
